Assay results from US5446147A (Trustees of the University of Pennsylvania, priority 1992, dated 1995).
Entries after “also recorded” stand apart in the source; their conditions may differ. Each block holds one molecule with its values, some of them ahead of it.

Experiments:
Dopamine D-2 Receptors = details: Table II, known dopamine D-2 receptor ligands; cited from earlier work
[1] = target: T1, dopamine D2 receptor (Rat Striatal Membranes) (Rattus norvegicus, UniProt P61169); experiment: Competition for ^125 I-FIDA-2 binding to rat striatal membranes
T1 construct: Rat tissue homogenates were prepared as described previously; from tissue; host or cells: rat striatal membranes (tissue homogenate)
T1 sequence (P61169 whole entry): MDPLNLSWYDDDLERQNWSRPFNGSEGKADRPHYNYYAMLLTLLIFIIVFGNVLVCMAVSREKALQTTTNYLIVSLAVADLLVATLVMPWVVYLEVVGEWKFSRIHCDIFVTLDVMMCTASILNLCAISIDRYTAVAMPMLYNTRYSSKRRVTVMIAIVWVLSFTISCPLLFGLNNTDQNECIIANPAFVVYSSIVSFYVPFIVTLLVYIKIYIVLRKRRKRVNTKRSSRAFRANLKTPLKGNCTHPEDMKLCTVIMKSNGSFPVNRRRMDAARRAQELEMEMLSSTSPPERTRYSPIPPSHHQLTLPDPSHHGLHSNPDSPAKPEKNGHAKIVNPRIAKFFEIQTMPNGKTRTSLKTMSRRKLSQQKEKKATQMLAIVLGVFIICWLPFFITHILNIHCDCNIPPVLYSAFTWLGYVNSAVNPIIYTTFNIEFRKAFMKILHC
Description: (§1) Rat tissue homogenates were prepared as described previously. Murphy, R. A., et al., J. Med. Chem. 33, 171-178 (1990). The binding assays were performed by incubating 50 μL of tissue preparations containing 40-60 μg of protein with appropriate amounts of ^125 I-labeled ligand and competitors in a total volume of 0.2 mL of the assay buffer. After an incubation period of 15 min at 37° C. (with stirring), the samples were rapidly filtered in a cell harvester (Brandel M-24R) under vacuum through Whatman GF/B glass-fiber filters pretreated with […] protamine base and washed with 3×5 mL of cold (4° C.) 50 mM Tris-HCI buffer, pH 7.4. The nonspecific binding was obtained in the presence of 10 μM (+)butaclamol. The filters were counted in a γ counter (Beckman 5500) at an efficiency of 70%. Both Scatchard and competition experiments were analyzed with the iterative nonlinear least squares curve-fitting program LIGAND.

[2] = target: T1, dopamine D2 receptor (Rat Striatal Membranes); experiment: Competition for ^125 I-FIDA-1 binding to rat striatal membranes
Description: as §1

[3] = In vivo biodistribution in rats (organ uptake); design: species or system rat; details: iv; for liver uptake (in words): first 30 min
Description: Male Sprague-Dawley rats (225-300 g), which were allowed free access to food and water, were used for the vivo biodistribution study. […] The organs of interest were removed and weighed and the radioactivity was counted with a Beckman gamma automatic counter (Model 4000). The percent dose per organ was calculated by a comparison of the tissue counts to suitably diluted aliquots of the injected material. Total activities of blood and muscle were calculated under the assumption that they were 7% and 40% of the total body weight, respectively.

[4] = test system: dopamine receptors (striatum); experiment: Regional brain distribution in rats (uptake ratio of region to cerebellum); type: in vivo, rat; details: iv
Description: Male Sprague-Dawley rats (225-300 g), which were allowed free access to food and water, were used for the vivo biodistribution study. While under halothane anesthesia, 0.2 mL of a saline solution containing [^125 I]FIDA 8 or 10 (8-10 μCi) was injected […] into the femoral vein of rats, and they were sacrificed at various time points postinjection by cardiac excision under halothane anesthesia. The organs of interest were removed and weighed and the radioactivity was counted with a Beckman gamma automatic counter (Model 4000). The percent dose per organ was calculated by a comparison of the tissue counts to suitably diluted aliquots of the injected material. Total activities of blood and muscle were calculated under the assumption that they were 7% and 40% of the total body weight, respectively.
Regional brain distribution in rats was obtained after an injection of [^125 I]FIDA 8 or 10. By dissecting, weighing, and counting samples from different brain regions (cortex, striatum, hippocampus, and cerebellum), the percent dose/gram of sample was calculated by comparing the sample counts with the count of the diluted initial dose. The uptake ratio of each region was obtained by dividing the percent dose/gram of each region by that to the cerebellum.

[5] = rat striatal membranes, 15 min at 37° C., nonspecific binding with 10 μM (+)butaclamol, read-out: Ki, inhibition constant on ^125 I-FIDA-2 binding

SMILES: CCN1CCC[C@H]1CNC(=O)c1cc(I)cc(OC)c1OC [Epidepride]
- Kd (Dopamine D-2 Receptors): 0.024 nM

SMILES: COc1cc(I)cc(C(=O)NC[C@H]2CCCN2Cc2ccc(F)cc2)c1OC [FIDA2, R(+)-2,3-dimethoxy-N-[(1-(4' -fluorobenzyl)-2-pyrrolidinyl)methyl]-5-iodobenzamide]
- binding specificity and selectivity (FIDA2 radioligand) ([1]; competition study with various types of receptor ligands): specifically binds to the dopamine D2 receptor with great selectivity

SMILES: CCN1CCC[C@H]1CNC(=O)c1cc(CCCF)cc(OC)c1OC [Fluoropropyl-Epidepride]
- Kd (Dopamine D-2 Receptors): 0.03 nM

SMILES: CCN1CCC[C@H]1CNC(=O)c1cc(I)cc2c1OCC2 [IBF]
- Kd (Dopamine D-2 Receptors): 0.106 nM

SMILES: CCN1CCC[C@H]1CNC(=O)c1c(OC)ccc(I)c1O [IBZM]
- Kd (Dopamine D-2 Receptors): 0.426 nM

SMILES: CCN1CCC[C@H]1CNC(=O)c1c(O)c(I)cc(OC)c1OC [Ioxipride]
- Kd (Dopamine D-2 Receptors): 0.019 nM

SMILES: CCN1CCC[C@H]1CNC(=O)c1c(O)c(Cl)cc(Cl)c1OC [Raclopride]
- Kd (Dopamine D-2 Receptors): 10 nM

- Ki ([2]; rat striatal membranes, 15 min at 37° C., nonspecific binding with 10 μM (+)butaclamol, read-out: Ki, inhibition constant on ^125 I-FIDA-1 binding): 33.1 ± 1.5 nM
- Ki [1, 5]: 23.3 ± 2.2 nM
SMILES: COc1cccc(OC)c1OCCNCC1COc2ccccc2O1 (stereo not drawn) [WB 4101]

- brain uptake (in words) [3]: moderate brain uptake
- liver clearance (in words) [3]: rapidly washed out at 1 h postinjection
- liver uptake (in words) [3]: remained high for the first 30 min
- increase in target to nontarget ratio vs. time, hippocampus and cortex [4]: not observed
- retention in striatum (in words) [4]: prolonged retention
- striatum/cerebellum (ST/CB) ratio ([4]; 30 min): 8.26
- striatum/cerebellum (ST/CB) ratio ([4]; 60 min): 29.3
- striatum/cerebellum (ST/CB) ratio ([4]; printed 10 min): 60.7
SMILES: CCN1CCC[C@H]1CNC(=O)c1cc([123I])cc(OC)c1OCCF [[^123 I]FIDA1]
- brain washout (in words) ([3]; 1 h after injection): a large portion of the radioactivity has washed out from the brain; also recorded: the radioactivity had washed out from the brain

- liver clearance (in words) [3]: slower than it was for [^123 I]FIDA1
- liver uptake (in words) [3]: High initial uptake in the liver
- brain uptake ([3]; time not stated): 0.98 % dose/organ
- ST/CB ratio ([4]; 2 min): 1.2
- ST/CB ratio ([4]; 120 min): 25.2
SMILES: COc1cc([123I])cc(C(=O)NC[C@H]2CCCN2Cc2ccc(F)cc2)c1OC [[^123 I]FIDA2]
- brain uptake (in words) [3]: better brain uptake in rats than [^123 I]FIDA1; also recorded: higher brain uptake than [^123 I]FIDA1

SMILES: CN1[C@@H]2CC[C@H]1C[C@@H](OC(=O)C(CO)c1ccccc1)C2 (stereo partly drawn) [atropine]
- Ki [2]: > 10000 nM
- Ki [1]: > 10000 nM

SMILES: COC(=O)[C@@H]1[C@H]2C[C@H]3c4[nH]c5ccccc5c4CCN3C[C@@H]2CC[C@@H]1O [yohimbine]
- Ki [1, 5]: 505 ± 70 nM
